Experimental data as given in ChEMBL document CHEMBL1201862, “PubChem BioAssay data set” (2004).
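Results reflect a 48-hour exposure of cells in 96-well plates to compound at five concentrations. GI50 marks 50% less growth.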 Calls of active or inactive are those of the source. Cut-off read from the data, not from the text of the source: active = GI50 up to about 1.1 µM and inactive = higher.

Key:
Assay in all cases: NCI anticancer screen, dose series, 48 h
786-0 = test system: 786-0
A498 = test system: A498
A549 = test system: A549
ACHN = test system: ACHN
BT-549 = test system: BT-549
CAKI-1 = test system: CAKI-1
CCRF-CEM = test system: CCRF-CEM
COLO 205 = test system: COLO 205
DU-145 = test system: DU-145
EKVX = test system: EKVX
HCC 2998 = test system: HCC 2998
HCT-116 = test system: HCT-116
HCT-15 = test system: HCT-15
HL-60 = test system: HL-60
HOP-62 = test system: HOP-62
HOP-92 = test system: HOP-92
HT-29 = test system: HT-29
Hs-578T = test system: Hs-578T
IGROV-1 = test system: IGROV-1
K562 = test system: K562
KM12 = test system: KM12
LOX IMVI = test system: LOX IMVI
M14 = test system: M14
MCF7 = test system: MCF7
MDA-MB-231 = test system: MDA-MB-231
MDA-MB-435 = test system: MDA-MB-435
MDA-N = test system: MDA-N
MOLT-4 = test system: MOLT-4
NCI-H460 = test system: NCI-H460
NCI/ADR-RES = test system: NCI/ADR-RES
OVCAR-3 = test system: OVCAR-3
OVCAR-4 = test system: OVCAR-4
OVCAR-5 = test system: OVCAR-5
OVCAR-8 = test system: OVCAR-8
PC-3 = test system: PC-3
RPMI-8226 = test system: RPMI-8226
SF-268 = test system: SF-268
SF-295 = test system: SF-295
SF-539 = test system: SF-539
SK-MEL-28 = test system: SK-MEL-28
SK-MEL-2 = test system: SK-MEL-2
SK-MEL-5 = test system: SK-MEL-5
SK-OV-3 = test system: SK-OV-3
SN12C = test system: SN12C
SNB-19 = test system: SNB-19
SNB-75 = test system: SNB-75
SR = test system: SR
SW-620 = test system: SW-620
T47D = test system: T47D
TK-10 = test system: TK-10
U-251 = test system: U-251
UACC-257 = test system: UACC-257
UACC-62 = test system: UACC-62
UO-31 = test system: UO-31
Malme-3M = test system: Malme-3M
NCI-H226 = test system: NCI-H226
NCI-H23 = test system: NCI-H23
RXF 393 = test system: RXF 393

Measured: GI50

Cc1ccc2nc(Cl)c(/C=N/N3C(=O)/C(=C/c4ccc(N(C)C)cc4)N=C3c3ccccc3)cc2c1
55.2 µM: HCT-15
inactive: 786-0 > 100 µM | A498 43.8 µM | A549 37.8 µM | ACHN 76.9 µM | BT-549 > 100 µM | CAKI-1 > 100 µM | CCRF-CEM 29.9 µM | COLO 205 51.1 µM | DU-145 80 µM | EKVX 80.9 µM | HCC 2998 66.2 µM | HCT-116 39.4 µM | HL-60 32.4 µM | HOP-62 42.8 µM | HOP-92 71.3 µM | HT-29 63.7 µM | Hs-578T 40.1 µM | IGROV-1 29 µM | K562 59.4 µM | KM12 40.7 µM | LOX IMVI 31.5 µM | M14 47.8 µM | MCF7 29 µM | MDA-MB-231 38.9 µM | MDA-MB-435 22.1 µM | MDA-N 29.1 µM | MOLT-4 24.4 µM | NCI-H460 37.5 µM | NCI/ADR-RES 32.7 µM | OVCAR-3 13.9 µM | OVCAR-4 70 µM | OVCAR-5 > 100 µM | OVCAR-8 41.8 µM | PC-3 47.6 µM | RPMI-8226 23.7 µM | SF-268 37.2 µM | SF-295 29.9 µM | SF-539 18.2 µM | SK-MEL-28 > 100 µM | SK-MEL-2 21.9 µM | SK-MEL-5 48.5 µM | SK-OV-3 > 100 µM | SN12C 80.7 µM | SNB-19 > 100 µM | SNB-75 24 µM | SR 32.6 µM | SW-620 57.8 µM | T47D 43.4 µM | TK-10 > 100 µM | U-251 26 µM | UACC-257 80.2 µM | UACC-62 43.4 µM | UO-31 37 µM

O=C(CC(=O)N(C(=O)c1ccccc1)c1ccc(Cl)cc1)N/N=C\c1cc(/N=N/c2ccccc2Cl)ccc1O
inactive: 786-0 38.1 µM | A498 31.3 µM | A549 > 100 µM | ACHN > 100 µM | BT-549 > 100 µM | CAKI-1 > 100 µM | CCRF-CEM 25.1 µM | COLO 205 > 100 µM | DU-145 > 100 µM | EKVX 90.2 µM | HCC 2998 > 100 µM | HCT-116 75 µM | HL-60 12.7 µM | HOP-62 39.5 µM | HOP-92 23.5 µM | HT-29 > 100 µM | Hs-578T 20 µM | IGROV-1 > 100 µM | K562 17.3 µM | KM12 26.3 µM | LOX IMVI > 100 µM | M14 > 100 µM | MCF7 > 100 µM | MDA-MB-231 29.2 µM | MDA-MB-435 > 100 µM | MDA-N > 100 µM | MOLT-4 18.7 µM | Malme-3M > 100 µM | NCI-H226 > 100 µM | NCI-H23 > 100 µM | NCI-H460 > 100 µM | NCI/ADR-RES > 10 µM | OVCAR-3 48 µM | OVCAR-5 > 100 µM | OVCAR-8 > 100 µM | PC-3 > 100 µM | RPMI-8226 68.2 µM | RXF 393 29.8 µM | SF-268 47.1 µM | SF-295 29.9 µM | SF-539 34.8 µM | SK-MEL-28 > 100 µM | SK-OV-3 52.1 µM | SN12C 42.5 µM | SNB-19 18.2 µM | SNB-75 12.4 µM | SR 17.9 µM | SW-620 > 100 µM | T47D 51.6 µM | TK-10 27.2 µM | U-251 39 µM | UACC-62 70.5 µM | UO-31 45.6 µM
75.7 µM: HCT-15
